Source: patent publication US6262067A, “Polymorphs of a crystalline azo-bicyclo 2,2,2 OCT-3-yl amine dihydrochloride and their pharmaceutical compositions” (priority 2000, dated 2001)
Counter-ions that a name gives are not always drawn. Like-named read-outs stand apart in the source and are kept apart here.

Columns and labels:
Assay type in all cases: physicochemical
[1] = Hygroscopicity / water uptake and loss at relative humidity (VTI)
[2] = Thermal water loss and degradation (TGA/DTA, DSC, fusion microscopy)
[3] = Solubility of polymorphs (aqueous intrinsic / aqueous equilibrium solubility)
[4] = Ambient polymorph screen with wet solvents (slurry conversion, relative form stability); conditions: for Polymorph Isolated: starting Form I, ambient

COc1ccc(C(C)C)cc1CN[C@H]1C2CCN(CC2)[C@H]1C(c1ccccc1)c1ccccc1 [anhydrous dihydrochloride, anhydrous dihydrochloride of (2-Benzhydryl-1-azo-bicyclo 2,2,2oct-3-yl)-(5-isoproyl-2-methoxybenzyl)-amine]
hygroscopicity (in words) [1]: hygroscopic
hygroscopicity (humidity at which hygroscopic and forms dihydrates) ([1]; about 52% humidity or greater): ≥ 52%

COc1ccc(C(C)C)cc1CN[C@H]1C2CCN(CC2)[C@H]1C(c1ccccc1)c1ccccc1 [Form I, (2-Benzhydryl-1-azo-bicyclo 2,2,2oct-3-yl)-(5-isoproyl-2-methoxybenzyl)-amine]
DSC degradation temperature ([2]; DSC): ~ 230 °C
DSC water loss (in words) ([2]; DSC): undetected
TGA/DTA degradation temperature [2]: 194 °C
Fusion Microscopy water loss (in words) ([2]; fusion microscopy): Slow water loss
hygroscopicity (in words) [1]: nonhydroscopic
VTI (% H2 O absorbed) [1]: 0.8 % wt.
Aqueous Equilibrium ([3]; aqueous): > 1155 mg/mL
solubility in wet THF (in words) ([3]; slurried in THF with >5% H2 O): solubility increases dramatically
solubility ([3]; water, aqueous, intrinsic, read-out: Aqueous Intrinsic Solubility): > 648 mg/mL
conversion to Form II in slurry ([4]; THF with about 3% to 5% H2 O): the conversion is to Form II
conversion to Form II in slurry ([4]; THF with less than 2% H2 O): no conversion to Form II
Polymorph Isolated ([4]; Acetone/5% H2 O, slurry): Form II
Polymorph Isolated ([4]; Acetonitrile/5% H2 O, slurry): Form I
Polymorph Isolated ([4]; Ethyl Acetate/3.5% H2 O, slurry): Form II
Polymorph Isolated ([4]; H2 O, solutions seeded with Form II): Form II
Polymorph Isolated ([4]; IPO/5% H2 O, slurry): Form I
Polymorph Isolated ([4]; Tetrahydrofuran/5% H2 O, slurry): Form II

COc1ccc(C(C)C)cc1CN[C@H]1C2CCN(CC2)[C@H]1C(c1ccccc1)c1ccccc1 [Form II, (2-Benzhydryl-1-azo-bicyclo 2,2,2oct-3-yl)-(5-isoproyl-2-methoxybenzyl)-amine]
TGA/DTA degradation temperature [2]: 178 °C
Fusion Microscopy water loss (in words) ([2]; fusion microscopy): Sharp water loss
Fusion Microscopy water loss temperature ([2]; fusion microscopy): ~ 100 °C
VTI (% H2 O absorbed) [1]: 0.4 % wt.
Aqueous Equilibrium ([3]; aqueous): 395 mg/mL
Aqueous Intrinsic Solubility ([3]; aqueous, intrinsic): < 329 mg/mL
solubility ([3]; medium not stated): 390-400 milligrams per milliliter
relative stability of the polymorph ([4]; compared with Form I): lower energy, more stable form than Form I
